Measured values from article PMC2870997 (Bioorganic & medicinal chemistry letters, 2009).

System: PKA reporter Reg-F[1]:Cat-F[2]
Assay: Protein-fragment complementation
Format: cell-based
Conditions: β2AR-HEK293 cells

SMILES | Effect on luminescence by β2AR activation (control) (1 μM, 30 min) | Effect of pretreatment on the response to 19 (control) (1 μM pretreatment)
CC(C)NCC(O)c1ccc(O)c(O)c1 (centres unmarked) [Analogue 19, isoproterenol] | able to reduce luminescence | –
Cc1ccc(OCC(O)C(C)NC(C)C)c2c1CCC2 (centres unmarked) [Analogue 20, IC118551] | – | capable of preventing the effects of 19
